Experimental data: patent US20250145599A1, “CERTAIN CHEMICAL ENTITIES, COMPOSITIONS, AND METHODS” (Retune Pharma Inc., priority 2022, published 2025)

Tests used:
[1] = biological target: IGF-1R (Homo sapiens, UniProt P08069); experiment: IGF-1R biochemical assay (ADP-Glo); settings: read-out: IGF1R IC50
Experimental: The inhibitory activity against IGF-1R was measured using ADP-Glo assay. The percent (%) inhibition at each concentration of compound is calculated based on and relative to the luminescence signal in the Max and Min control wells contained within each assay plate. The Max control wells contain enzyme and substrate as 0% inhibition, and the Min control wells only contain substrate without enzyme as 100% inhibition. The concentrations and % inhibition values for tested compounds are plotted and the concentration of compound required for 50% inhibition (IC50) is determined with a four-parameter logistic dose response equation.
Table 3 provides IC50 data of representative compounds against IGF-1R using ADP-Glo assay. The IC50 data are designated within the following ranges: A: ≤0.10 μM, B: >0.10 μM to ≤1 μM, C: >1 μM to ≤20 μM

[2] = tested on: Ba/F3-TEL-IGF-1R cells; experiment: CellTiter-Glo luminescent cell viability assay; format: cell-based; settings: cellular IC50, Ba/F3-TEL-IGF-1R cells
Experimental: The CellTiter-Glo luminescent cell viability assay was used to determine the inhibitory activity of the compounds against IGF-1R in Ba/F3-TEL-IGF-1R cells. […] The IC50 data are designated within the following ranges: A: ≤1 μM, B: >1 μM to ≤10 μM, C: >10 μM to ≤20 μM

Chain of IGF-1R (P08069 31-1367): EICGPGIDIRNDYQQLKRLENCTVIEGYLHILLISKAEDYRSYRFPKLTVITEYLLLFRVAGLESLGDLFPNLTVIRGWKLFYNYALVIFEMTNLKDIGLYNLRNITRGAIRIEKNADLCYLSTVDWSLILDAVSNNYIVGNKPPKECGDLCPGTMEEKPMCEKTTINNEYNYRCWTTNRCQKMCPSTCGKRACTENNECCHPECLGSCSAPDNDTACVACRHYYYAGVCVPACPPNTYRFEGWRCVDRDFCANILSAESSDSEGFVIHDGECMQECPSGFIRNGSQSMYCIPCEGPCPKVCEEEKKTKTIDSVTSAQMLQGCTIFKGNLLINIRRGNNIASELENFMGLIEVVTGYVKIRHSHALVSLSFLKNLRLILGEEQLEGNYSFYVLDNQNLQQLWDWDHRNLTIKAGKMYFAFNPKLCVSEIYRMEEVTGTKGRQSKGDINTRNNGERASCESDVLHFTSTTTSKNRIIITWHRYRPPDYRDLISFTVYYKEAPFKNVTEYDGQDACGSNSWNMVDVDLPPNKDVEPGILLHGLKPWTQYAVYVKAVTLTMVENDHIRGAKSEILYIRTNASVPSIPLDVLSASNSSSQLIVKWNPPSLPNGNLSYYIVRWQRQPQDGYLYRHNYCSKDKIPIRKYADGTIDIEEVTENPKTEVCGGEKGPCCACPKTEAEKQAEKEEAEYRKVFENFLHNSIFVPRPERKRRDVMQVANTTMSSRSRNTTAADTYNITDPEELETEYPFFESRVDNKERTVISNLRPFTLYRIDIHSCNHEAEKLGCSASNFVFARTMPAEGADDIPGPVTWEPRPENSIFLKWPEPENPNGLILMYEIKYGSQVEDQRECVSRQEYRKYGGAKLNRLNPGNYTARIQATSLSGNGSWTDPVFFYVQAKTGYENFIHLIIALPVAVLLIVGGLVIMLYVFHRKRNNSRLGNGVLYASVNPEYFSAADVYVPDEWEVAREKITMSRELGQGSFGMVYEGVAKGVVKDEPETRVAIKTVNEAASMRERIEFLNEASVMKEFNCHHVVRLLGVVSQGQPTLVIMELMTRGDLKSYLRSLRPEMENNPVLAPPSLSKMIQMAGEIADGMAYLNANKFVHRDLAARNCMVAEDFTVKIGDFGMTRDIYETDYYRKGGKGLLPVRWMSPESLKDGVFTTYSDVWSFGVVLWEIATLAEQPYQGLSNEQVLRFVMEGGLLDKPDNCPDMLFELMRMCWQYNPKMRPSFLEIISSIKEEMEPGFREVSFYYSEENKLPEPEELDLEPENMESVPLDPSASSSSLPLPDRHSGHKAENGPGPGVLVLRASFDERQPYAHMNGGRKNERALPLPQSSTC

Compound | IC50 [1] [nM] | IC50 [2] [nM]
C[C@]1(O)C[C@@H](n2nc(-c3ccc4ccc(-c5ccccc5)nc4c3)c(C(N)=O)c2N)C1 [Example C005, 5-amino-1-((1s,3s)-3-hydroxy-3-methylcyclobutyl)-3-(2-phenylquinolin-7-yl)-1H-pyrazole-4-carboxamide] | ≤ 100 | ≤ 1000
NC(=O)c1c(-c2ccc3ccc(-c4ccccc4)nc3c2)nn([C@H]2C[C@@H](CN3CCOCC3)C2)c1N [Example C012, 5-amino-1-((1s,3s)-3-(morpholinomethyl)cyclobutyl)-3-(2-phenylquinolin-7-yl)-1H-pyrazole-4-carboxamide] | ≤ 100 | ≤ 1000
NC(=O)c1c(-c2ccc3ccc(-c4ccccc4)nc3c2)nn([C@H]2C[C@H](CN3CCOCC3)C2)c1N [Example C013, 5-amino-1-((1r,3r)-3-(morpholinomethyl)cyclobutyl)-3-(2-phenylquinolin-7-yl)-1H-pyrazole-4-carboxamide] | ≤ 100 | ≤ 1000
COc1cc(-c2ccccc2)nc2cc(-c3nn([C@H]4C[C@@](C)(O)C4)c(N)c3C(N)=O)ccc12 [Example C032, 5-amino-1-((1s,3s)-3-hydroxy-3-methylcyclobutyl)-3-(4-methoxy-2-phenylquinolin-7-yl)-1H-pyrazole-4-carboxamide] | ≤ 100 | ≤ 1000
CCOc1cc(-c2ccccc2)nc2c(F)c(-c3nn([C@H]4C[C@@](C)(O)C4)c(N)c3C(N)=O)ccc12 [Example C033, 5-amino-3-(4-ethoxy-8-fluoro-2-phenylquinolin-7-yl)-1-((1s,3s)-3-hydroxy-3-methylcyclobutyl)-1H-pyrazole-4-carboxamide] | ≤ 100 | ≤ 1000
COc1cc(-c2ccccc2)nc2c(F)c(-c3nn([C@H]4C[C@@](C)(O)C4)c(N)c3C(N)=O)ccc12 [Example C034, 5-amino-3-(8-fluoro-4-methoxy-2-phenylquinolin-7-yl)-1-((1s,3s)-3-hydroxy-3-methylcyclobutyl)-1H-pyrazole-4-carboxamide] | ≤ 100 | ≤ 1000
COc1cc(-c2ccccc2F)nc2c(F)c(-c3nn([C@H]4C[C@@](C)(O)C4)c(N)c3C(N)=O)ccc12 [Example C035, 5-amino-3-(8-fluoro-2-(2-fluorophenyl)-4-methoxyquinolin-7-yl)-1-((1s,3s)-3-hydroxy-3-methylcyclobutyl)-1H-pyrazole-4-carboxamide] | ≤ 100 | ≤ 1000
CCOc1cc(-c2ccccc2)nc2cc(-c3nn([C@H]4C[C@@](C)(O)C4)c(N)c3C(N)=O)ccc12 [Example C036, 5-amino-3-(4-ethoxy-2-phenylquinolin-7-yl)-1-((1s,3s)-3-hydroxy-3-methylcyclobutyl)-1H-pyrazole-4-carboxamide] | ≤ 100 | ≤ 1000
CCOc1cc(-c2ccccc2)nc2cc(-c3nn(C4CC(=O)C4)c(N)c3C(N)=O)ccc12 [Example C043, 5-amino-3-(4-ethoxy-2-phenylquinolin-7-yl)-1-(3-oxocyclobutyl)-1H-pyrazole-4-carboxamide] | ≤ 100 | –
C[C@]1(O)C[C@@H](n2nc(-c3ccc4c(OC(F)F)cc(-c5ccccc5)nc4c3F)c(C(N)=O)c2N)C1 [Example C044, 5-amino-3-(4-(difluoromethoxy)-8-fluoro-2-phenylquinolin-7-yl)-1-((1s,3s)-3-hydroxy-3-methylcyclobutyl)-1H-pyrazole-4-carboxamide] | ≤ 100 | –
COc1cc(-c2ccccc2)nc2c(F)c(-c3nn([C@H]4C[C@](C)(O)C4)c(N)c3C(N)=O)ccc12 [Example C045, 5-amino-3-(8-fluoro-4-methoxy-2-phenylquinolin-7-yl)-1-((lr,3r)-3-hydroxy-3-methylcyclobutyl)-1H-pyrazole-4-carboxamide] | ≤ 100 | ≤ 1000
COc1cc(-c2ccccc2F)nc2cc(-c3nn([C@H]4C[C@@](C)(O)C4)c(N)c3C(N)=O)ccc12 [Example C046, 5-amino-3-(2-(2-fluorophenyl)-4-methoxyquinolin-7-yl)-1-((1s,3s)-3-hydroxy-3-methylcyclobutyl)-1H-pyrazole-4-carboxamide] | ≤ 100 | ≤ 1000
COc1cc(-c2ccccc2F)nc2cc(-c3nn([C@H]4C[C@](C)(O)C4)c(N)c3C(N)=O)ccc12 [Example C047, 5-amino-3-(2-(2-fluorophenyl)-4-methoxyquinolin-7-yl)-1-((1r,3r)-3-hydroxy-3-methylcyclobutyl)-1H-pyrazole-4-carboxamide] | ≤ 100 | –
COc1cc(-c2cccc(F)c2)nc2cc(-c3nn([C@H]4C[C@@](C)(O)C4)c(N)c3C(N)=O)ccc12 [Example C048, 5-amino-3-(2-(3-fluorophenyl)-4-methoxyquinolin-7-yl)-1-((1s,3s)-3-hydroxy-3-methylcyclobutyl)-1H-pyrazole-4-carboxamide] | ≤ 100 | ≤ 1000
COc1cc(-c2cccc(F)c2)nc2cc(-c3nn([C@H]4C[C@](C)(O)C4)c(N)c3C(N)=O)ccc12 [Example C049, 5-amino-3-(2-(3-fluorophenyl)-4-methoxyquinolin-7-yl)-1-((1r,3r)-3-hydroxy-3-methylcyclobutyl)-1H-pyrazole-4-carboxamide] | ≤ 100 | –
COc1cc(-c2ccccc2F)nc2c(F)c(-c3nn([C@H]4C[C@](C)(O)C4)c(N)c3C(N)=O)ccc12 [Example C050, 5-amino-3-(8-fluoro-2-(2-fluorophenyl)-4-methoxyquinolin-7-yl)-1-((1r,3r)-3-hydroxy-3-methylcyclobutyl)-1H-pyrazole-4-carboxamide] | ≤ 100 | ≤ 1000
COc1cc(-c2ccccc2)nc2cc(-c3nn([C@H]4C[C@@](C)(O)C4)c(N)c3C(N)=O)c(F)cc12 [Example C051, 5-amino-3-(6-fluoro-4-methoxy-2-phenylquinolin-7-yl)-1-((1s,3s)-3-hydroxy-3-methylcyclobutyl)-1H-pyrazole-4-carboxamide] | ≤ 100 | ≤ 1000
COc1cc(-c2ccccc2)nc2cc(-c3nn([C@H]4C[C@](C)(O)C4)c(N)c3C(N)=O)c(F)cc12 [Example C052, 5-amino-3-(6-fluoro-4-methoxy-2-phenylquinolin-7-yl)-1-((lr,3r)-3-hydroxy-3-methylcyclobutyl)-1H-pyrazole-4-carboxamide] | ≤ 100 | –
C[C@]1(O)C[C@@H](n2nc(-c3ccc4c(OC(F)F)cc(-c5ccccc5)nc4c3)c(C(N)=O)c2N)C1 [Example C053, 5-amino-3-(4-(difluoromethoxy)-2-phenylquinolin-7-yl)-1-((1s,3s)-3-hydroxy-3-methylcyclobutyl)-1H-pyrazole-4-carboxamide] | ≤ 100 | –
C[C@]1(O)C[C@@H](n2nc(-c3ccc4cnc(-c5ccccc5)nc4c3)c(C(N)=O)c2N)C1 [Example C054, 5-amino-1-((1s,3s)-3-hydroxy-3-methylcyclobutyl)-3-(2-phenylquinazolin-7-yl)-1H-pyrazole-4-carboxamide] | 1000 to 20000 | –
COc1cc(-c2ccccc2)nc2cc(-c3nn([C@H]4C[C@@](C)(O)C4)c(N)c3C(N)=O)cc(F)c12 [Example C055, 5-amino-3-(5-fluoro-4-methoxy-2-phenylquinolin-7-yl)-1-((1s,3s)-3-hydroxy-3-methylcyclobutyl)-1H-pyrazole-4-carboxamide] | 100 to 1000 | –
C[C@]1(O)C[C@@H](n2nc(-c3ccc4ccc(-c5ccccc5F)nc4c3F)c(C(N)=O)c2N)C1 [Example C056, 5-amino-3-(8-fluoro-2-(2-fluorophenyl)quinolin-7-yl)-1-((1s,3s)-3-hydroxy-3-methylcyclobutyl)-1H-pyrazole-4-carboxamide] | ≤ 100 | ≤ 1000
C[C@]1(O)C[C@@H](n2nc(-c3ccc4ccc(-c5ccccn5)nc4c3F)c(C(N)=O)c2N)C1 [Example C057, 5-amino-3-(8-fluoro-2-(pyridin-2-yl)quinolin-7-yl)-1-((1s,3s)-3-hydroxy-3-methylcyclobutyl)-1H-pyrazole-4-carboxamide] | 100 to 1000 | –
C[C@]1(O)C[C@@H](n2nc(-c3ccc4cc(F)c(-c5ccccc5)nc4c3F)c(C(N)=O)c2N)C1 [Example C059, 5-amino-3-(3,8-difluoro-2-phenylquinolin-7-yl)-1-((1s,3s)-3-hydroxy-3-methylcyclobutyl)-1H-pyrazole-4-carboxamide] | 100 to 1000 | –
COc1c(F)c(-c2ccccc2F)nc2c(F)c(-c3nn([C@H]4C[C@@](C)(O)C4)c(N)c3C(N)=O)ccc12 [Example C061, 5-amino-3-(3,8-difluoro-2-(2-fluorophenyl)-4-methoxyquinolin-7-yl)-1-((1s,3s)-3-hydroxy-3-methylcyclobutyl)-1H-pyrazole-4-carboxamide] | ≤ 100 | ≤ 1000
COc1c(F)c(-c2ccccc2)nc2c(F)c(-c3nn([C@H]4C[C@@](C)(O)C4)c(N)c3C(N)=O)ccc12 [Example C062, 5-amino-3-(3,8-difluoro-4-methoxy-2-phenylquinolin-7-yl)-1-((1s,3s)-3-hydroxy-3-methylcyclobutyl)-1H-pyrazole-4-carboxamide] | ≤ 100 | ≤ 1000
COc1nc(-c2ccccc2)nc2cc(-c3nn([C@H]4C[C@@](C)(O)C4)c(N)c3C(N)=O)ccc12 [Example C064, 5-amino-1-((1s,3s)-3-hydroxy-3-methylcyclobutyl)-3-(4-methoxy-2-phenylquinazolin-7-yl)-1H-pyrazole-4-carboxamide] | 100 to 1000 | –
